The term MIC denotes the lowest concentration that inhibits growth of the organism.

Consider twelve compounds from ChEMBL document CHEMBL5518248, “Design, Synthesis, and Biological Evaluation of Novel Arylomycins against Multidrug-Resistant Gram-Negative Bacteria” (J Med Chem, 2024).

Each structure is given as a SMILES string. Where only a bound is given, the exact number is not on record here.

Type in all cases: functional
What all share (settings): time 18-20 hrs

The subject of assay [1] is Pseudomonas aeruginosa. The experiment in a line: Antibacterial activity against Pseudomonas aeruginosa 17-1 assessed as inhibition of bacterial growth measured after 18 to 20 hrs by broth microdilution method. For orientation: Dilution methods test growth across graded concentrations, often in twofold steps.
The subject of assay [2] is Klebsiella pneumoniae. As to the kind of experiment: Antibacterial activity against Klebsiella pneumoniae 15-1 assessed as inhibition of bacterial growth measured after 18 to 20 hrs by broth microdilution method.
Assay [3] deals with Acinetobacter baumannii. The experiment in a line: Antibacterial activity against Acinetobacter baumannii 17-2 assessed as inhibition of bacterial growth measured after 18 to 20 hrs by broth microdilution method.
Assay [4] relates to Klebsiella pneumoniae. The experiment in a line: Antibacterial activity against Klebsiella pneumoniae 15-5 assessed as inhibition of bacterial growth measured after 18 to 20 hrs by broth microdilution method.
In assay [5] the test system is Escherichia coli. As to the kind of experiment: Antibacterial activity against Escherichia coli 14-4 assessed as inhibition of bacterial growth measured after 18 to 20 hrs by broth microdilution method.
The test system of assay [6] is Acinetobacter baumannii. The experiment in a line: Antibacterial activity against Acinetobacter baumannii 17-8 assessed as inhibition of bacterial growth measured after 18 to 20 hrs by broth microdilution method.
For assay [7], the system named is Escherichia coli. As to the kind of experiment: Antibacterial activity against Escherichia coli ATCC 35218 assessed as inhibition of bacterial growth measured after 18 to 20 hrs by broth microdilution method.
In assay [8] the test system is Klebsiella pneumoniae. As to the kind of experiment: Antibacterial activity against Klebsiella pneumoniae 15-4 assessed as inhibition of bacterial growth measured after 18 to 20 hrs by broth microdilution method.
The subject of assay [9] is Escherichia coli. The experiment in a line: Antibacterial activity against Escherichia coli 14-2 assessed as inhibition of bacterial growth measured after 18 to 20 hrs by broth microdilution method.
The test system of assay [10] is Pseudomonas aeruginosa. The experiment in a line: Antibacterial activity against Pseudomonas aeruginosa 19-5 assessed as inhibition of bacterial growth measured after 18 to 20 hrs by broth microdilution method.

With `Cc1nc(-c2ccc(C(C)(C)C)cc2)ncc1C(=O)N[C@@H](CCN)C(=O)N(C)[C@@H]1C(=O)N[C@@H](C)C(=O)N[C@H](C(=O)OCC=O)Cc2ccc(OCCN)c(c2)-c2cc1ccc2OCCN.Cl.Cl.Cl.Cl`, the MIC in the assay with Pseudomonas aeruginosa [1] is > 64 µg/mL; with Klebsiella pneumoniae [2], ≤ 0.03 µg/mL; with Acinetobacter baumannii [3] it was 8 µg/mL; in the assay with Klebsiella pneumoniae [4], ≤ 0.03 µg/mL; in the assay with Escherichia coli [5] it was 0.125 µg/mL; in the assay on Acinetobacter baumannii [6], 2 µg/mL. Moreover, the MIC in the assay with Escherichia coli [7] is ≤ 0.03 µg/mL; with Klebsiella pneumoniae [8] it was 0.06 µg/mL; in the assay on Escherichia coli [9] it was 0.06 µg/mL; in the assay on Pseudomonas aeruginosa [10], > 64 µg/mL.

In the case of `Cc1nc(-c2ccc(CSSCCC(F)(F)F)cc2)ncc1C(=O)N[C@@H](CCN)C(=O)N(C)[C@@H]1C(=O)N[C@@H](C)C(=O)N[C@H](C(=O)NCC#N)Cc2ccc(OCCN)c(c2)-c2cc1ccc2OCCN.O=C(O)C(F)(F)F.O=C(O)C(F)(F)F.O=C(O)C(F)(F)F.O=C(O)C(F)(F)F`, the MIC with Pseudomonas aeruginosa [1] is 8 µg/mL; in the assay with Klebsiella pneumoniae [2], 0.25 µg/mL; in the assay on Acinetobacter baumannii [3] it was 2 µg/mL; with Klebsiella pneumoniae [4], 0.25 µg/mL; in the assay on Escherichia coli [5] it was 0.125 µg/mL; in the assay with Acinetobacter baumannii [6] it was 1 µg/mL. For the same compound, the MIC in the assay with Escherichia coli [7] amounted to 0.06 µg/mL; with Klebsiella pneumoniae [8], 0.25 µg/mL; in the assay on Escherichia coli [9] it was 0.125 µg/mL; in the assay on Pseudomonas aeruginosa [10], 8 µg/mL.

On to `Cc1nc(C2=CCC3(CC2)CC3)ncc1C(=O)N[C@@H](CCN)C(=O)N(C)[C@@H]1C(=O)N[C@@H](C)C(=O)N[C@H](C(=O)NCC#N)Cc2ccc(OCCN)c(c2)-c2cc1ccc2OCCN.O=C(O)C(F)(F)F.O=C(O)C(F)(F)F.O=C(O)C(F)(F)F.O=C(O)C(F)(F)F`, for which the MIC was > 64 µg/mL in the assay on Pseudomonas aeruginosa [1]; 0.25 µg/mL in the assay on Klebsiella pneumoniae [2]; 16 µg/mL in the assay with Acinetobacter baumannii [3]; 1 µg/mL with Klebsiella pneumoniae [4]; 0.25 µg/mL with Escherichia coli [5]; 4 µg/mL in the assay with Acinetobacter baumannii [6]. Further, the MIC in the assay with Escherichia coli [7] was 0.125 µg/mL; with Klebsiella pneumoniae [8] it was 0.25 µg/mL; with Escherichia coli [9], 0.25 µg/mL; with Pseudomonas aeruginosa [10] it was > 64 µg/mL.

Consider `Cc1nc(-c2ccc(CSSC(C)(C)C)cc2)nc(C)c1C(=O)N[C@@H](CCN)C(=O)N(C)[C@@H]1C(=O)N[C@@H](C)C(=O)N[C@H](C(=O)NCC#N)Cc2ccc(OCCN)c(c2)-c2cc1ccc2OCCN.O=C(O)C(F)(F)F.O=C(O)C(F)(F)F.O=C(O)C(F)(F)F.O=C(O)C(F)(F)F`, for which the MIC in the assay on Pseudomonas aeruginosa [1] is 4 µg/mL; in the assay with Klebsiella pneumoniae [2], 0.125 µg/mL; with Acinetobacter baumannii [3] it was 0.5 µg/mL; in the assay with Klebsiella pneumoniae [4], 0.125 µg/mL; in the assay with Escherichia coli [5], 0.06 µg/mL; in the assay with Acinetobacter baumannii [6] it was 0.5 µg/mL. Moreover, the MIC in the assay on Escherichia coli [7] was ≤ 0.03 µg/mL; with Klebsiella pneumoniae [8], 0.125 µg/mL; in the assay on Escherichia coli [9], 0.06 µg/mL; with Pseudomonas aeruginosa [10], 4 µg/mL.

For `CSSC1(c2ccc(-c3ncc(C(=O)N[C@@H](CCN)C(=O)N(C)[C@@H]4C(=O)N[C@@H](C)C(=O)N[C@H](C(=O)NCC#N)Cc5ccc(OCCN)c(c5)-c5cc4ccc5OCCN)c(C)n3)cc2)CCC1.O=C(O)C(F)(F)F.O=C(O)C(F)(F)F.O=C(O)C(F)(F)F.O=C(O)C(F)(F)F`, the MIC is 16 µg/mL in the assay on Pseudomonas aeruginosa [1]; 0.06 µg/mL in the assay on Klebsiella pneumoniae [2]; 0.5 µg/mL in the assay with Acinetobacter baumannii [3]; 0.125 µg/mL in the assay on Klebsiella pneumoniae [4]; 0.06 µg/mL in the assay with Escherichia coli [5]; 0.25 µg/mL in the assay on Acinetobacter baumannii [6]. Further, the MIC was ≤ 0.03 µg/mL with Escherichia coli [7], 0.125 µg/mL with Klebsiella pneumoniae [8], 0.125 µg/mL in the assay with Escherichia coli [9] and 2 µg/mL in the assay with Pseudomonas aeruginosa [10].

On to `Cc1cc(-c2ccc(CSSC(C)(C)C)cc2)ncc1C(=O)N[C@@H](CCN)C(=O)N(C)[C@@H]1C(=O)N[C@@H](C)C(=O)N[C@H](C(=O)NCC#N)Cc2ccc(OCCN)c(c2)-c2cc1ccc2OCCN.O=C(O)C(F)(F)F.O=C(O)C(F)(F)F.O=C(O)C(F)(F)F.O=C(O)C(F)(F)F`, for which the MIC was determined as 8 µg/mL with Pseudomonas aeruginosa [1]; 0.125 µg/mL in the assay on Klebsiella pneumoniae [2]; 1 µg/mL in the assay on Acinetobacter baumannii [3]; 0.25 µg/mL in the assay on Klebsiella pneumoniae [4]; 0.125 µg/mL in the assay on Escherichia coli [5]; 1 µg/mL with Acinetobacter baumannii [6]. Further, the MIC with Escherichia coli [7] is ≤ 0.03 µg/mL; in the assay with Klebsiella pneumoniae [8], 0.5 µg/mL; in the assay with Escherichia coli [9], 0.25 µg/mL; in the assay on Pseudomonas aeruginosa [10] it was 6 µg/mL.

For `Cc1nc(-c2ccc(C(C)(C)C)cc2)ncc1C(=O)N[C@@H](CCN)C(=O)N(C)[C@@H]1C(=O)N[C@@H](C)C(=O)N[C@H](C(=O)NCC#N)c2ccc(OCCN)c(c2)-c2cc1ccc2OCCN.Cl.Cl.Cl.Cl`, the MIC in the assay on Pseudomonas aeruginosa [1] was > 64 µg/mL; in the assay with Klebsiella pneumoniae [2], 64 µg/mL; in the assay on Acinetobacter baumannii [3], > 64 µg/mL; with Klebsiella pneumoniae [4], 64 µg/mL; in the assay with Escherichia coli [5] it was 32 µg/mL; in the assay with Escherichia coli [7], 64 µg/mL. Further, the MIC was > 64 µg/mL in the assay on Klebsiella pneumoniae [8], 32 µg/mL in the assay on Escherichia coli [9] and 32 µg/mL in the assay on Pseudomonas aeruginosa [10].

For the compound `Cc1nc(-c2ccc(C(C)(C)C)cc2)ncc1C(=O)N[C@@H](CCN)C(=O)N(C)[C@@H]1C(=O)N[C@@H](C)C(=O)N[C@H](C(=O)NOCC#N)Cc2ccc(OCCN)c(c2)-c2cc1ccc2OCCN.Cl.Cl.Cl.Cl`, the MIC in the assay with Pseudomonas aeruginosa [1] was > 64 µg/mL; in the assay with Klebsiella pneumoniae [2] it was 0.5 µg/mL; in the assay with Acinetobacter baumannii [3], 32 µg/mL; with Klebsiella pneumoniae [4], 1 µg/mL; with Escherichia coli [5], 0.5 µg/mL; with Escherichia coli [7] it was 0.5 µg/mL. Also, the MIC is 2 µg/mL in the assay on Klebsiella pneumoniae [8], 0.5 µg/mL with Escherichia coli [9] and > 64 µg/mL in the assay with Pseudomonas aeruginosa [10].

Regarding `Cc1nc(-c2ccc(C(C)(C)C)cc2)ncc1C(=O)N[C@@H](CCN)C(=O)N(C)[C@@H]1C(=O)N[C@@H](C)C(=O)N[C@H](C(=O)NCC(=O)O)Cc2ccc(OCCN)c(c2)-c2cc1ccc2OCCN.Cl.Cl.Cl.Cl`, the MIC is > 64 µg/mL in the assay with Pseudomonas aeruginosa [1]; 1 µg/mL in the assay with Klebsiella pneumoniae [2]; 64 µg/mL in the assay with Acinetobacter baumannii [3]; 1 µg/mL with Klebsiella pneumoniae [4]; 1 µg/mL in the assay on Escherichia coli [5]; 1 µg/mL with Escherichia coli [7]. Further, the MIC in the assay with Klebsiella pneumoniae [8] was 2 µg/mL; with Escherichia coli [9], 1 µg/mL; in the assay on Pseudomonas aeruginosa [10] it was > 64 µg/mL.

On to `Cc1nc(-c2ccc(C(C)(C)C)cc2)ncc1C(=O)N[C@@H](CCN)C(=O)N(C)[C@H]1Cc2ccc(OCCN)c(c2)-c2cc(ccc2OCCN)[C@@H](C(=O)NCC#N)NC(=O)[C@H](C)NC1=O.Cl.Cl.Cl.Cl`, for which the MIC with Pseudomonas aeruginosa [1], in the assay with Klebsiella pneumoniae [2], in the assay with Acinetobacter baumannii [3], in the assay with Klebsiella pneumoniae [4], with Escherichia coli [5] and with Escherichia coli [7] was > 64 µg/mL throughout. Moreover, the MIC in the assay on Klebsiella pneumoniae [8], in the assay on Escherichia coli [9] and in the assay with Pseudomonas aeruginosa [10] was > 64 µg/mL throughout.

`Cc1nc(-c2ccc(C(C)(C)C)cc2)ncc1C(=O)N[C@@H](CCN)C(=O)N(C)[C@@H]1C(=O)N[C@@H](C)C(=O)N[C@H](C(=O)NCS(=O)(=O)O)Cc2ccc(OCCN)c(c2)-c2cc1ccc2OCCN.Cl.Cl.Cl.Cl`: the MIC in the assay on Pseudomonas aeruginosa [1] was > 64 µg/mL; in the assay on Klebsiella pneumoniae [2], 4 µg/mL; in the assay with Acinetobacter baumannii [3] it was > 64 µg/mL; in the assay with Klebsiella pneumoniae [4] it was 8 µg/mL; in the assay on Escherichia coli [5] it was 8 µg/mL; with Escherichia coli [7], 16 µg/mL. In addition, the MIC with Klebsiella pneumoniae [8] is 16 µg/mL; in the assay on Escherichia coli [9] it was 32 µg/mL; in the assay on Pseudomonas aeruginosa [10], > 64 µg/mL.

Turning to `Cc1nc(-c2ccc(C(C)(C)C)cc2)ncc1C(=O)N[C@@H](CCN)C(=O)N(C)[C@@H]1C(=O)NCCC(=O)N[C@H](C(=O)NCC#N)Cc2ccc(OCCN)c(c2)-c2cc1ccc2OCCN.Cl.Cl.Cl.Cl`, the MIC was > 64 µg/mL with Pseudomonas aeruginosa [1]; 32 µg/mL in the assay on Klebsiella pneumoniae [2]; > 64 µg/mL in the assay with Acinetobacter baumannii [3]; 64 µg/mL with Klebsiella pneumoniae [4]; 16 µg/mL in the assay on Escherichia coli [5]; 16 µg/mL in the assay on Escherichia coli [7]. Further, the minimal inhibitory concentration (MIC) with Klebsiella pneumoniae [8] was 32 µg/mL; in the assay with Escherichia coli [9], 16 µg/mL; in the assay on Pseudomonas aeruginosa [10] it was > 64 µg/mL.
